What was measured:
[1] = Time-course of generation of ClO2 after 1:1 mixing of NaClO2 solution and oxidizing agent solution, change in absorption at 360 nm; details: from NaClO2 in the presence of the oxidizing agent
Source text: The pH of the resulting composition should be at or below about 7, but above the pKa of chlorous acid. It is known that ClO2 is generated from NaClO2 at pH values at or below about 7 in the absence of an oxidizing agent such as […]. However, the generation is quite slow (on the order of days and months). In the presence of an oxidizing agent such as […] or tannic acid, under the conditions described above, therapeutically effective levels of ClO2 begin to be generated in seconds, as shown below in Tables 1 and 2. Increasing the concentration of the oxidizing agent by weight will cause a more rapid generation of ClO2.

[2] = standard temperature and pressure; cited from earlier work
[3] = same solution as H2O2; cited from earlier work

Compound	time in which therapeutically effective levels of ClO2 begin to be generated [1]	solubility in water [2]	stability in the presence of H2O2 [3]
O=C(OC[C@H]1O[C@@H](OC(=O)c2cc(O)c(O)c(OC(=O)c3cc(O)c(O)c(O)c3)c2)[C@H](OC(=O)c2cc(O)c(O)c(OC(=O)c3cc(O)c(O)c(O)c3)c2)[C@@H](OC(=O)c2cc(O)c(O)c(OC(=O)c3cc(O)c(O)c(O)c3)c2)[C@@H]1OC(=O)c1cc(O)c(O)c(OC(=O)c2cc(O)c(O)c(O)c2)c1)c1cc(O)c(O)c(OC(=O)c2cc(O)c(O)c(O)c2)c1 [tannic acid]	in seconds	1 g/0.35 mL water	–
O=C1O[C@H]([C@@H](O)CO)C(O)=C1O [ascorbic acid]	in seconds	–	–
O=S(=O)([O-])OOS(=O)(=O)[O-].[Na+].[Na+] [sodium persulfate]	–	–	degrades very quickly
